In patent US20010049389A1, “Arthropod-controlling composition” (priority 2000, published 2001):

Legend:
Type in all cases: in vivo
[1] = tested on: adult houseflies (Musca domestica); test: Test Example 1: oil solution spray in glass chamber, knock-down of houseflies; conditions: 0.7 ml of 0.5% oil solution (Preparation example 9) sprayed in 0.34 m^3 glass chamber
Experimental: (§1) Ten (5 males and 5 females) adult houseflies (Musca domestica) were released in a glass chamber (70 cm cube, capacity: 0.34 m^3). Seven-tenth milliliter (0.7 ml) of the oil solution obtained in Preparation example 9 was applied into the chamber with a spray gun at a pressure of 0.9 kg/cm^2. Fifteen minutes after spraying, the knocked-down houseflies were counted. Reference compound was also tested.

[2] = tested on: female adult common mosquitoes (Culex pipiens pallens); test: Test Example 2: oil solution spray in glass chamber, knock-down of common mosquitoes; conditions: 0.7 ml of 0.5% oil solution sprayed in 0.34 m^3 glass chamber, two repetitions
Experimental: as §1
The same procedure was performed as in Test example 1 except that ten female adult common mosquitoes (Culex pipiens pallens) in place of houseflies were used. As a result of two repetitions, the knock-down percentage at 15 minutes after spraying was 100%.

[3] = tested on: adult American cockroaches (Periplaneta americana); test: Test Example 4: smoking formulation in 28 m^3 chamber, American cockroaches; conditions: 10 g smoking (Preparation example 25) in 28 m^3 chamber
From the text: In a test chamber of 3 m×4 m and 2.3 m in height (28 m^3), two plastic cups were put at two corners, wherein each cup has ten (5 males and 5 females) adult German cockroaches (Blattella germanica) therein. Ten grams (10 g) of the smoking obtained in Preparation example 25 and 50g of magnesium oxide were charged into each of the cells in an aluminum container having an aluminum wall. The cell charged magnesium oxide has small holes. The aluminum container was dipped into water in the plastic container set in the test chamber. The smoking was heated to release the vaporized active ingredient by the reaction heats of magnesium oxide with water. After 2 hours, knock-down percentage was observed. Further, the cockroaches were transferred to a clean plastic cup and given foods and water. The mortality was observed after 7 days.
Furthermore, the same tests were performed except that six (3 males and 3 females) adult smokybrown cockroaches (Periplaneta fuliginosa) and six (3 males and 3 females) adult American cockroaches (Periplaneta americana) were used in place of ten German cockroaches.

[4] = tested on: adult German cockroaches (Blattella germanica); test: Test Example 5: heating fumigant (ceramic plate) in 5.8 m^3 chamber, German cockroaches; conditions: heating fumigant (Preparation example 24, 500 mg) at about 200° C. in 5.8 m^3 chamber
Experimental: On the bottom of a cubic chamber having 1.8 m of side (5.8 m^3), the heating fumigant (ceramic plate) obtained in Preparation example 24 with an electric heater was set in the center. Two plastic cups were put at two corners in the chamber, wherein each cup has ten (5 males and 5 females) adult German cockroaches (Blattella germanica) therein. Two hours after turning on an electric current, the ceramic plate was heated to about 200° C. (200±5° C.) and the active ingredient was vaporized. The heating temperature was estimated by measuring a surface temperature of the ceramic plate with radiation pyrometer (TR-0506C produced by Minolta Company) in advance. Then, the knocked-down cockroaches were counted and the knock-down percentage was calculated. Further, the cockroaches were transferred to a clean plastic cup and given foods and water. The mortality was observed after 7 days.

[5] = tested on: cat flea (Ctenocephalides felis) eggs; test: Test Example 8: treated filter paper, hatching of cat flea eggs
Experimental: A designated amount of the Pyrone Compound was dissolved in acetone to give a 0.2 ml solution, which was uniformly treated on a filter paper having 3.8 cm in diameter, and air-dried for one hour. The filter paper was set on an aluminum plate of 4 cm in diameter. Twenty cat flea (Ctenocephalides felis) eggs were put on the filter paper and the plate was kept at 25±3° C. and 70-90% of humidity in a plastic Petri dish. After 7 days, the hatching was observed. The tests were repeated three times and the results are given in […]

[6] = tested on: termites (Coptotermes formosanus); test: Test Example 9: treated soil after 3 months storage, termites; conditions: 10 ml of 0.5% (w/w) solution in 200 g soil, kept 3 months at 40° C. in the dark, after 10 days
Experimental: The Pyrone Compound was dissolved in water to give a 10 ml solution having 0.5% (w/w) of a concentration. The solution was mixed with 200 g of soil and air-dried. After keeping for 3 months at 40° C. and in the dark, about 10 g of the soil were put on a plastic Petri dish having 9 cm in diameter. The soil was wetted with distilled water and 10 termites (Coptotermes formosanus) were released thereon. After 10 days, the termites were observed and the percent moribund was 100%.

ants (Formica japonica) = test: Test Example 14: oil-based aerosol spray, ants; conditions: about 450 mg of 1.0% oil-based aerosol sprayed, after 2 days
Experimental: According to Preparation examples 10-14, 1.0% oil-based aerosol of the Pyrone Compound was obtained. In a 200 cc plastic cup having inside wall painted talc for preventing tested ants to escape, about 30 g of soil were set and 10 ants (Formica japonica) were release thereon. The plastic cup was set on the bottom center of a glass cylinder having 20 cm in diameter and 60 cm in height. About 450 mg of the above oil-based aerosol were sprayed to the ants from the upper part of the cylinder. After 10 seconds, the ants were taken out and put into a clean plastic cup having a piece of watermelon peel as food therein. After 2 days, the mortality was observed and the result was 70%.

[7] = tested on: cotton aphids (Aphis gossypii); test: Test Example 15: foliar spray on cucumber, cotton aphids; conditions: 500 ppm dilution of flowable (Preparation example 7), 30 ml sprayed, after 6 days
Experimental: About 30 cotton aphids (Aphis gossypii) were put on a cucumber leaf (in first-leaf stage) grown in a 90 ml plastic cup.
Next day, the formulation obtained in Preparation example 7 was diluted with water containing a spreading agent (Tokurino produced by Nihon Nohyaku Co.) to make the concentration of the Pyrone Compound to 500 ppm. Thirty milliliters (30 ml) of the dilution were sprayed to the cucumber and air-dried. The plastic pot was put in a container and allowed to stand at 22±2° C. in a greenhouse. After 6 days, the mortality was 90% or more.

[8] = tested on: 4-instar larvae of tobacco cutworm (Spodoptera litura); test: Test Example 17: treated cabbage leaf disc, feeding damage by tobacco cutworm; conditions: 50 μg on cabbage leaf disc of 1 cm diameter, after 24 hours, 5 repetitions
Experimental: A methanol solution (50 μg/20 μl) of the Pyrone Compound was prepared. The solution (20 μl) was painted on a cut leaf disc of cabbage (1 cm in diameter). After vaporizing methanol, the leaf disc was put on a filter paper, which was wet with 1 ml of water, in Petri dish making the painted surface upside. Two 4-instar larvae of tobacco cutworm (Spodoptera litura) were put in the Petri dish. After 24 hours, the damage of the leaf disc was observed and compared with the test result of the non-treated disc. The tests were repeated 5 times.

Cc1cc(O)c(C(=O)CC(C)C)c(=O)o1 [The Pyrone Compound]
Knock-down percentage (%) 15 min. after spraying [1]: 95% | knock-down percentage at 15 minutes after spraying [2]: 100% | Knock-down percentage (%) ([3]; after 2 hours): 100% | Mortality (%) ([3]; after 7 days): 75% | Mortality (%) ([4]; after 7 days): 100% | Knock-down percentage (%) ([4]; two hours): 100% | Hatching ratio (%) ([5]; dosage 5 mg/m^2, after 7 days): 1.7% | Hatching ratio (%) ([5]; dosage 25 mg/m^2, after 7 days): 0% | Hatching ratio (%) ([5]; dosage 125 mg/m^2, after 7 days): 0% | percent moribund [6]: 100% | mortality (ants (Formica japonica)): 70% | mortality [7]: ≥ 90% | damage of the leaf disc compared with the non-treated disc [8]: clearly smaller
